Measured values published in paper PMC8582824, “Targeting DDX3X Helicase Activity with BA103 Shows Promising Therapeutic Effects in Preclinical Glioblastoma Models” (Cancers, 2021).

How the values were obtained:
U87 cells xenograft = test: Subcutaneous U87 xenograft model of GBM; assay type: in vivo, CD1 nude mice; details: 50 mg/kg i.p.
Protocol: Male CD1 nude mice (Charles River, Milan, Italy) were maintained under the guidelines established by our Institution (University of L’Aquila), complying with the Declaration of Helsinki, national and international laws and policies (European Economic Community Council Directive 86/609; Italian Legislative Decree 4.03.2014 n.26, Gazzetta Ufficiale della Repubblica Italiana no. 61, 4 March 2014). Before any invasive manipulation, mice were anesthetized with a mixture of ketamine (25 mg/mL)/xylazine (5 mg/mL). Tumor grafts were obtained by injecting s.c. 1 × 10^6 U87 cells in 100 µL of 12 mg/mL Matrigel (Becton Dickinson, Franklin Lakes, NJ, USA). Tumor growth was monitored daily by measuring the average tumor diameter, and mice were divided into experimental groups when the tumor reached a volume of approximately 50 mm^3. The tumor volume was calculated according to the formula 4/3πr^3, with r representing the […]. BA103 was administered i.p. in a saline solution containing 10% v/v DMSO and 10% v/v TWEEN 80. Each mouse received 50 mg/kg BA103, or vehicle, three times per week. Previous experiments with the same settings have permitted choosing the endpoint of 21 days considering the maximum mean volume of tumors in control mice that was compatible with no signs of distress. […]
Next, we tested our compound on U87 cells in a xenograft model of GBM. […] During the experiment, tumor growth was monitored measuring tumor volume, and at the end point, 21 days after the start point, mice were euthanized, and tumors were recovered and measured. […] Tumor masses were also analyzed for the expression of DDX3X, and all xenografts resulted positive for DDX3X expression, from both control and treated groups, with a spotted staining pattern (Figure 9D).
Figure 9 Biological activity of BA103 in xenograft models of GBM. […] Tumor growth was monitored by measuring tumor volume (B), and at the end point, tumors were weighed, and the resulting mean values for each group are reported in the histogram (C). […] Mice were monitored for two months after U87 cells inoculation.

DU-145 = test: MTS cytotoxicity assay, DU-145 cells; assay type: cell-based; details: DU-145, 72 h
Protocol: For CellTiter 96® Aqueous One Solution Cell Proliferation Assay (MTS) (Promega, Madison, WI, USA), cells were seeded at 5 × 10^3 per well in 96-well plates in quadruplicate together a control with no cells to evaluate the background. After 24 h, the culture medium was removed, and fresh medium containing increasing concentrations of chemical compounds was added to cells. The fixed final concentrations were 0.1 μM, 1 μM, 10 μM, and 100 μM. DMSO was the vehicle used for dilution of the compounds, and its final concentration on cells was less than 0.2%. Medium-only containing wells were included as controls. […] After 3 h at 37 °C in a humidified, 5% CO2 atmosphere, the absorbance at 492 nm was recorded using an EZREAD400 (Biochrom, Cambridge, United Kingdom) plate reader. The average 490 nm absorbance from the “no cell” control wells was subtracted from all other values to yield background-corrected absorbance. Dose–response curves and CC50 values have been calculated by plotting the absorbance data as a function of inhibitor concentrations and fitting the data by least-squares nonlinear regression, according to the method of Marquardt–Levenberg, with the computer program GraphPad Prism 6.0.
Cells were incubated with a scalar concentration of DDX3X inhibitors, and after 72 h of treatment, cell viability was assessed by cytotoxicity assay. […]

For CCCCc1cn(-c2ccc(NC(=O)Nc3ccccc3C(F)(F)F)cc2)nn1 [BA103, 1-(4-(4-Butyl-1H-1,2,3-triazol-1-yl)phenyl)-3-(2-(trifluoromethyl)phenyl)urea], the “tumor growth (tumor volume) vs control” value (U87 cells xenograft; from the second week) was “reduction in tumor growth was evident”, the “reduction of mean tumor mass with respect to control group” value (U87 cells xenograft; three times per week for two weeks, end point 21 days) was ~60% and the “signs of distress in the receiving animal” value (U87 cells xenograft; two consecutive weeks) was “absence of any visible sign of distress”. The “CC50” value (DU-145) was “low micromolar range”.
